A word on the IC50: it is the concentration needed to halve the response being measured.

The record followed here is patent publication US12091425B2 (AMGEN INC., priority 2016, dated 2024).

The test system of assay [1] is OPM-2 human multiple myeloma cell line. The assay is described as follows: Cell Viability Assay (OPM-2 10 FBS). As to conditions: Homo sapiens, OPM-2 cells, CellTiter-Glo. It is filed as cell-based. The method in brief:
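Plated at 3000 cells/well in 10% FBS complete medium, the cells received a serial compound dilution series and incubated 16 h at 37 °C with 5% CO2. CellTiter-Glo was then added; IC50 values were fitted with a logistic 4-parameter model.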

Assay [2] deals with T1, Mcl-1/Bim interaction, recombinant human Mcl-1 (171-327) (Homo sapiens, UniProt Q07820).
T1 construct: made in house
T1 sequence (Q07820 171-327): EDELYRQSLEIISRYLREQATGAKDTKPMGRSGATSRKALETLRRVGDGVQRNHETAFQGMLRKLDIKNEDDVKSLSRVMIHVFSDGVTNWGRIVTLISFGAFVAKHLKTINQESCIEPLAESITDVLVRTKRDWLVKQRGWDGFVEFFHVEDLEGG
The assay is described as follows: Cell free Mcl-1: Bim Affinity Assay (Mcl-1 HTRF). It is filed as binding. The method in brief:
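Compounds were mixed with the protein and a biotinylated Bim peptide spanning human residues 51-76. Plates were left overnight, then TR-FRET signal was measured. A four-parameter sigmoidal model applied to duplicate competition data gave IC50.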

The mark [3] stands for this setting: cell free Mcl-1:Bim TR-FRET, recombinant human Mcl-1 (171-327).

Each structure is given as a SMILES string.

Regarding `C[C@@H]1[C@@H](C)C/C=C/[C@H](OCCN2CCCC2=O)[C@@H]2CC[C@H]2CN2C[C@@]3(CCCc4cc(Cl)ccc43)COc3ccc(cc32)C(=O)NS1(=O)=O` [Example 730, (1S,3′R,6′R,7′S,8′E,11′5,12′R)-6-chloro-11′,12′-dimethyl-7′-(2-(2-oxo-1-pyrrolidinyl)ethoxy)-3,4-dihydro-2H,15′H-spiro[naphthalene-1,22′-[20]oxa[13]thia[1,14]diazatetracyclo[14.7.2.0^3,6.0^19,24]pentacosa [8,16,18,24]tetraen]-15′-one-13′, 13′-dioxide], the IC50 was determined as 157 nM in assay [1] (OPM-2, 16 h, 16 h) and 0.307 nM in assay [2] (setting [3]).

`C[C@@H]1[C@@H](C)C/C=C/[C@H](OCCN2CCC2=O)[C@@H]2CC[C@H]2CN2C[C@@]3(CCCc4cc(Cl)ccc43)COc3ccc(cc32)C(=O)NS1(=O)=O` [Example 731, (1S,3′R,6′R,7′S,8′E,11′S,12′R)-6-chloro-11′,12′-dimethyl-7′-(2-(2-oxo-1-azetedinyl)ethoxy)-3,4-dihydro-2H,15′H-spiro[naphthalene-1,22′-[20]oxa[13]thia[1,14]diazatetracyclo[14.7.2.0^3,6.0^19,24]pentacosa [8,16,18,24]tetraen]-15′-one-13′, 13′-dioxide]: the IC50 in assay [1] (OPM-2, 16 h, 16 h) was determined as 117 nM; in assay [2] (setting [3]), 0.301 nM.

As for `CC(=O)NCCO[C@H]1/C=C/C[C@H](C)[C@@H](C)S(=O)(=O)NC(=O)c2ccc3c(c2)N(C[C@@H]2CC[C@H]21)C[C@@]1(CCCc2cc(Cl)ccc21)CO3` [Example 732, N-(2-(((1S,3′R,6′R,7′S,8′E,11′S,12′R)-6-chloro-11,12′-dimethyl-13′, 13′-dioxido-15′-oxo-3,4-dihydro-2H-spiro[naphthalene-1,22′-[20]oxa[13]thia[1,14]diazatetracyclo[14.7.2.0^3,6.0^19,24]pentacosa[8,16,18,24]tetraen]-7′-yl)oxy)ethyl)acetamide], the IC50 in assay [1] (OPM-2, 16 h, 16 h) is 170 nM; in assay [2] (setting [3]), 0.244 nM.

For `CC(=O)N1CCN(CCO[C@H]2/C=C/C[C@H](C)[C@@H](C)S(=O)(=O)NC(=O)c3ccc4c(c3)N(C[C@@H]3CC[C@H]32)C[C@@]2(CCCc3cc(Cl)ccc32)CO4)CC1` [Example 733, (1S,3′R,6′R,7′S,8′E,11′S,12′R)-7′-(2-(4-acetyl-1-piperazinyl)ethoxy)-6-chloro-11′,12′-dimethyl-3,4-dihydro-2H,15′H-spiro[naphthalene-1,22′-[20]oxa[13]thia[1,14]diazatetracyclo [14.7.2.0^3,6.0^19,24]pentacosa[8,16,18,24]tetraen]-15′-one-13′, 13′-dioxide], the IC50 is 69.7 nM in assay [1] (OPM-2, 16 h, 16 h) and 0.284 nM in assay [2] (setting [3]).

On to `C[C@@H]1[C@@H](C)C/C=C/[C@H](OCCN2CCN(S(C)(=O)=O)CC2)[C@@H]2CC[C@H]2CN2C[C@@]3(CCCc4cc(Cl)ccc43)COc3ccc(cc32)C(=O)NS1(=O)=O` [Example 734], for which the IC50 in assay [1] (OPM-2, 16 h, 16 h) amounted to 134 nM; in assay [2] (setting [3]), 1.12 nM.

On to `C[C@@H]1[C@@H](C)C/C=C/[C@H](OCCNS(C)(=O)=O)[C@@H]2CC[C@H]2CN2C[C@@]3(CCCc4cc(Cl)ccc43)COc3ccc(cc32)C(=O)NS1(=O)=O` [Example 735, N-(2-(((1S,3′R,6′R,7′S,8′E,11′S,12′R)-6-chloro-11′,12′-dimethyl-13′, 13′-dioxido-15′-oxo-3,4-dihydro-2H-spiro[naphthalene-1,22′-[20]oxa[13]thia[1,14]diazatetracyclo[14.7.2.0^3,6.0^19,24]pentacosa[8,16,18,24]tetraen]-7′-yl)oxy)ethyl)Methanesulfonamide], for which the IC50 is 202 nM in assay [1] (OPM-2, 16 h, 16 h) and 0.681 nM in assay [2] (setting [3]).

As to `CCOC(=O)NCCO[C@H]1/C=C/C[C@H](C)[C@@H](C)S(=O)(=O)NC(=O)c2ccc3c(c2)N(C[C@@H]2CC[C@H]21)C[C@@]1(CCCc2cc(Cl)ccc21)CO3` [Example 736, ethyl (2-(((1S,3′R,6′R,7′S,8′E,11′S,12′R)-6-chloro-11′,12′-dimethyl-13′, 13′-dioxido-15′-oxo-3,4-dihydro-2H-spiro[naphthalene-1,22′-[20]oxa[13]thia[1,14]diazatetracyclo[14.7.2.0^3,6.0^19,24]pentacosa[8,16,18,24]tetraen]-7′-yl)oxy)ethyl)carbamate], the IC50 in assay [1] (OPM-2, 16 h, 16 h) worked out at 192 nM; in assay [2] (setting [3]) it was 0.891 nM.

Regarding `C[C@@H]1[C@@H](C)C/C=C/[C@H](OCCC2CCN(C(=O)OC(C)(C)C)CC2)[C@@H]2CC[C@H]2CN2C[C@@]3(CCCc4cc(Cl)ccc43)COc3ccc(cc32)C(=O)NS1(=O)=O` [Example 737, tert-butyl 4-(2-(((1S,3′R,6′R,7′S,8′E,11′S,12′R)-6-chloro-11′,12′-dimethyl-13′,13′-dioxido-15′-oxo-3,4-dihydro-2H-spiro[naphthalene-1,22′-[20]oxa[13]thia[1,14]diazatetracyclo[14.7.2.0˜3,6˜.0˜19,24˜]pentacosa[8,16,18,24]tetraen]-7′-yl)oxy)ethyl)-1-piperidinecarboxylate], the IC50 turned out to be 3390 nM in assay [1] (OPM-2, 16 h, 16 h) and 15.1 nM in assay [2] (setting [3]).

With `CCOC(=O)CO[C@H]1/C=C/C[C@H](C)[C@H](C)S(=O)(=O)NC(=O)c2ccc3c(c2)N(C[C@@H]2CC[C@H]21)C[C@@]1(CCCc2cc(Cl)ccc21)CO3` [Example 738, ethyl (((1S,3′R,6′R,7′S,8′E,11′S,12′S)-6-chloro-11′,12′-dimethyl-13′,13′-dioxido-15′-oxo-3,4-dihydro-2H-spiro[naphthalene-1,22′-[20]oxa[13]thia[1,14]diazatetracyclo[14.7.2.0^3,6.0^19,24]pentacosa[8,16,18,24]tetraen]-7′-yl)oxy)acetate], the IC50 in assay [1] (OPM-2, 16 h, 16 h) worked out at 1760 nM; in assay [2] (setting [3]), 3.21 nM.

In the case of `C[C@H]1C/C=C/[C@H](OCC(=O)O)[C@@H]2CC[C@H]2CN2C[C@@]3(CCCc4cc(Cl)ccc43)COc3ccc(cc32)C(=O)NS(=O)(=O)[C@H]1C` [Example 739, (((1S,3′R,6′R,7′S,8′E,11′S,12′S)-6-chloro-11′,12′-dimethyl-13′,13′-dioxido-15′-oxo-3,4-dihydro-2H-spiro[naphthalene-1,22′-[20]oxa[13]thia [1,14]diazatetracyclo[14.7.2.0^3,6.0^19,24]pentacosa[8,16,18,24]tetraen]-7′-yl)oxy)acetic Acid], the IC50 was determined as 24200 nM in assay [1] (OPM-2, 16 h, 16 h) and 0.141 nM in assay [2] (setting [3]).

Turning to `CC[C@@H]1[C@@H](C)C/C=C/[C@H](OCCOC)[C@@H]2CC[C@H]2CN2C[C@@]3(CCCc4cc(Cl)ccc43)COc3ccc(cc32)C(=O)NS1(=O)=O` [Example 740, (1S,3′R,6′R,7′S,8′E,11′S,12′R)-6-chloro-12′-ethyl-7′-(2-methoxyethoxy)-11′-methyl-3,4-dihydro-2H,15′H-spiro[naphthalene-1,22′-[20]oxa[13]thia[1,14]diazatetracyclo[14.7.2.0^3,6.0^19,24]pentacosa [8,16,18,24]tetraen]-15′-one-13′, 13′-dioxide], the IC50 in assay [1] (OPM-2, 16 h, 16 h) stood at 170 nM; in assay [2] (setting [3]) it was 0.543 nM.

Regarding `CC[C@@H]1C/C=C/[C@H](OCC(=O)OC)[C@@H]2CC[C@H]2CN2C[C@@]3(CCCc4cc(Cl)ccc43)COc3ccc(cc32)C(=O)NS(=O)(=O)C1` [Example 741, methyl (((1S,3′R,6′R,7′S,8′E,11′R)-6-chloro-11′-ethyl-13′,13′-dioxido-15′-oxo-3,4-dihydro-2H-spiro[naphthalene-1,22′-[20]oxa[13]thia [1,14]diazatetracyclo[14.7.2.0^3,6.0^19,24]pentacosa[8,16,18,24]tetraen]-7′-yl)oxy)acetate], the IC50 worked out at 3110 nM in assay [1] (OPM-2, 16 h, 16 h) and 13.5 nM in assay [2] (setting [3]).

Consider `CC[C@@H]1C/C=C/[C@H](OCC(=O)O)[C@@H]2CC[C@H]2CN2C[C@@]3(CCCc4cc(Cl)ccc43)COc3ccc(cc32)C(=O)NS1(=O)=O` [Example 764, (((1S,3′R,6′R,7′S,8′E,11′R)-6-chloro-11′-ethyl-12′,12′-dioxido-14′-oxo-3,4-dihydro-2H-spiro[naphthalene-1,21′-[19]oxa[12]thia[1,13]diazatetracyclo[13.7.2.0^3,6.0^18,23]tetracosa[8,15,17,23]tetraen]-7′-yl)oxy)acetic Acid], for which the IC50 in assay [1] (OPM-2, 16 h, 16 h) came to 11200 nM; in assay [2] (setting [3]), 0.113 nM.

For the compound `COc1ccc(CNCCO[C@H]2/C=C/C[C@H](C)[C@@H](C)S(=O)(=O)NC(=O)c3ccc4c(c3)N(C[C@@H]3CC[C@H]32)C[C@@]2(CCCc3cc(Cl)ccc32)CO4)c(OC)c1` [Example 777, (1S,3′R,6′R,7′S,8′E,11′S,12′R)-6-chloro-7′-(2-((2,4-dimethoxybenzyl)amino)ethoxy)-11′,12′-dimethyl-3,4-dihydro-2H,15′H-spiro[naphthalene-1,22′-[20]oxa[13]thia[1,14]diazatetracyclo[14.7.2.0^3,6.0^19,24]pentacosa[8,16,18,24]tetraen]-15′-one-13′, 13′-dioxide], the IC50 in assay [1] (OPM-2, 16 h, 16 h) is 912 nM; in assay [2] (setting [3]) it was 13.8 nM.

For `C=C1CCCC[C@@H](CC)S(=O)(=O)NC(=O)c2ccc3c(c2)N(C[C@@H]2CC[C@@H]12)C[C@@]1(CCCc2cc(Cl)ccc21)CO3` [Example 859, (1S,3′R,6′R,12′R)-6-chloro-12′-ethyl-7′-methylidene-3,4-dihydro-2H,15′H-spiro[naphthalene-1,22′-[20]oxa[13]thia[1,14]diazatetracyclo[14.7.2.0^3,6.0^19,24]pentacosa [16,18,24]trien]-15′-one 13′,13′-dioxide], the IC50 in assay [1] (OPM-2, 16 h, 16 h) is 11500 nM; in assay [2] (setting [3]), 15.8 nM.

For `O=C1NS(=O)(=O)CCC/C=C/[C@@H](O)[C@@H]2CC[C@H]2CN2C[C@@]3(CCCc4cc(Cl)ccc43)COc3ccc1cc32` [Example 952, (1S,3′R,6′R,7′R,8′E)-6-chloro-7′-hydroxy-3,4-dihydro-2H,15′H-spiro[naphthalene-1,22′-[20]oxa[13]thia[1,14]diazatetracyclo[14.7.2.0^3,6.0^19,24]pentacosa [8,16,18,24]tetraen]-15′-one 13′,13′-dioxide], the IC50 stood at 6380 nM in assay [1] (16 h incubation) and 1.28 nM in assay [2] (TR-FRET, 0.1 nM Mcl-1 (171-327), 0.05 nM biotin-Bim (51-76)).
